From PubChem BioAssay (NCI)
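96-well plates; 48 h exposure; 5 concentrations. Endpoints by linear interpolation between flanking doses. Not reached: highest tested concentration assigned. TGI: total growth inhibition.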

Assays:
Experiment in all cases: growth of human tumour cells (NCI), 48 h
[1] = system: 786-0 renal
[2] = system: A498 renal
[3] = system: A549 NSCLC
[4] = system: ACHN renal
[5] = system: CAKI-1 renal
[6] = system: CCRF-CEM leukemia
[7] = system: COLO 205 colon
[8] = system: DLD-1 colon
[9] = system: DMS 273 small cell lung
[10] = system: EKVX NSCLC
[11] = system: HCC-2998 colon
[12] = system: HCT-15 colon
[13] = system: HL-60(TB) leukemia
[14] = system: HOP-18 NSCLC
[15] = system: HOP-92 NSCLC
[16] = system: HT29 colon
[17] = system: IGROV1 ovarian
[18] = system: K-562 leukemia
[19] = system: KM12 colon
[20] = system: LOX IMVI melanoma
[21] = system: LXFL 529 NSCLC
[22] = system: M14 melanoma
[23] = system: M19-MEL melanoma
[24] = system: MALME-3M melanoma
[25] = system: MOLT-4 leukemia
[26] = system: NCI-H23 lung
[27] = system: NCI-H460 lung
[28] = system: NCI-H522 lung
[29] = system: OVCAR-3 ovarian
[30] = system: OVCAR-4 ovarian
[31] = system: OVCAR-5 ovarian
[32] = system: OVCAR-8 ovarian
[33] = system: RPMI-8226 leukemia
[34] = system: RXF 393 renal
[35] = system: SF-268 CNS
[36] = system: SF-295 CNS
[37] = system: SF-539 CNS
[38] = system: SK-MEL-2 melanoma
[39] = system: SK-MEL-28 melanoma
[40] = system: SK-MEL-5 melanoma
[41] = system: SK-OV-3 ovarian
[42] = system: SN12C renal
[43] = system: SNB-19 CNS
[44] = system: SNB-75 CNS
[45] = system: SW-620 colon
[46] = system: TK-10 renal
[47] = system: U251 CNS
[48] = system: UACC-257 melanoma
[49] = system: UACC-62 melanoma
[50] = system: UO-31 renal
[51] = system: XF 498 CNS
[52] = system: DMS 114 small cell lung
[53] = system: HCT-116 colon
[54] = system: HOP-62 NSCLC
[55] = system: KM20L2 colon
[56] = system: NCI-H226 lung
[57] = system: SNB-78 CNS
[58] = system: SR leukemia

CCCCCCCCCCSC(=O)NC
TGI [1]: > 100 µM | TGI [2]: > 100 µM | TGI [3]: > 100 µM | TGI [4]: > 100 µM | TGI [5]: > 100 µM | TGI [6]: 48.3 µM | TGI [7]: > 100 µM | TGI [8]: > 100 µM | TGI [9]: > 100 µM | TGI [10]: 71.4 µM | TGI [11]: > 100 µM | TGI [12]: 54.8 µM | TGI [13]: 39.9 µM | TGI [14]: > 100 µM | TGI [15]: 57.8 µM | TGI [16]: 77 µM | TGI [17]: > 100 µM | TGI [18]: 67.7 µM | TGI [19]: > 100 µM | TGI [20]: > 100 µM | TGI [21]: > 100 µM | TGI [22]: 50 µM | TGI [23]: > 100 µM | TGI [24]: > 100 µM | TGI [25]: 46.5 µM | TGI [26]: 99.8 µM | TGI [27]: > 100 µM | TGI [28]: 54.6 µM | TGI [29]: > 100 µM | TGI [30]: > 100 µM | TGI [31]: > 100 µM | TGI [32]: 87.7 µM | TGI [33]: 48.8 µM | TGI [34]: 44.1 µM | TGI [35]: > 100 µM | TGI [36]: > 100 µM | TGI [37]: > 100 µM | TGI [38]: 69 µM | TGI [39]: 68.4 µM | TGI [40]: 45.6 µM | TGI [41]: > 100 µM | TGI [42]: 74.4 µM | TGI [43]: > 100 µM | TGI [44]: > 100 µM | TGI [45]: > 100 µM | TGI [46]: > 100 µM | TGI [47]: 68.4 µM | TGI [48]: 85 µM | TGI [49]: > 100 µM | TGI [50]: > 100 µM | TGI [51]: 54 µM

CCOc1ccc(/C=C(\Cl)c2ccc(OC)cc2)cc1
TGI [1]: > 100 µM | TGI [2]: > 100 µM | TGI [3]: > 100 µM | TGI [4]: > 100 µM | TGI [6]: > 100 µM | TGI [7]: > 100 µM | TGI [8]: > 100 µM | TGI [52]: > 100 µM | TGI [9]: > 100 µM | TGI [10]: > 100 µM | TGI [11]: > 100 µM | TGI [53]: > 100 µM | TGI [12]: > 100 µM | TGI [13]: > 100 µM | TGI [14]: > 100 µM | TGI [54]: > 100 µM | TGI [15]: > 100 µM | TGI [16]: > 100 µM | TGI [17]: > 100 µM | TGI [18]: > 100 µM | TGI [55]: > 100 µM | TGI [21]: > 100 µM | TGI [22]: > 100 µM | TGI [23]: > 100 µM | TGI [24]: > 100 µM | TGI [25]: > 100 µM | TGI [56]: > 100 µM | TGI [26]: > 100 µM | TGI [28]: > 100 µM | TGI [30]: > 100 µM | TGI [32]: > 100 µM | TGI [33]: > 100 µM | TGI [34]: > 100 µM | TGI [35]: > 100 µM | TGI [36]: > 100 µM | TGI [37]: > 100 µM | TGI [39]: > 100 µM | TGI [40]: > 100 µM | TGI [41]: > 100 µM | TGI [42]: > 100 µM | TGI [43]: > 100 µM | TGI [44]: > 100 µM | TGI [57]: > 100 µM | TGI [58]: > 100 µM | TGI [45]: > 100 µM | TGI [47]: > 100 µM | TGI [48]: > 100 µM | TGI [49]: > 100 µM | TGI [50]: > 100 µM | TGI [51]: > 100 µM
